According to ChEMBL document CHEMBL2073988, “Secretory transport of methylprednisolone possibly mediated by P-glycoprotein in Caco-2 cells” (Biol Pharm Bull, 2002):

Biological target: ATP-dependent translocase ABCB1 (Homo sapiens, UniProt P08183)
Experiment: TP_TRANSPORTER: transepithelial transport (basal to apical), inhibited by Verapamil in Caco-2 cells
Format: functional, cell-based

ATP-dependent translocase ABCB1, sequence (P08183 whole entry): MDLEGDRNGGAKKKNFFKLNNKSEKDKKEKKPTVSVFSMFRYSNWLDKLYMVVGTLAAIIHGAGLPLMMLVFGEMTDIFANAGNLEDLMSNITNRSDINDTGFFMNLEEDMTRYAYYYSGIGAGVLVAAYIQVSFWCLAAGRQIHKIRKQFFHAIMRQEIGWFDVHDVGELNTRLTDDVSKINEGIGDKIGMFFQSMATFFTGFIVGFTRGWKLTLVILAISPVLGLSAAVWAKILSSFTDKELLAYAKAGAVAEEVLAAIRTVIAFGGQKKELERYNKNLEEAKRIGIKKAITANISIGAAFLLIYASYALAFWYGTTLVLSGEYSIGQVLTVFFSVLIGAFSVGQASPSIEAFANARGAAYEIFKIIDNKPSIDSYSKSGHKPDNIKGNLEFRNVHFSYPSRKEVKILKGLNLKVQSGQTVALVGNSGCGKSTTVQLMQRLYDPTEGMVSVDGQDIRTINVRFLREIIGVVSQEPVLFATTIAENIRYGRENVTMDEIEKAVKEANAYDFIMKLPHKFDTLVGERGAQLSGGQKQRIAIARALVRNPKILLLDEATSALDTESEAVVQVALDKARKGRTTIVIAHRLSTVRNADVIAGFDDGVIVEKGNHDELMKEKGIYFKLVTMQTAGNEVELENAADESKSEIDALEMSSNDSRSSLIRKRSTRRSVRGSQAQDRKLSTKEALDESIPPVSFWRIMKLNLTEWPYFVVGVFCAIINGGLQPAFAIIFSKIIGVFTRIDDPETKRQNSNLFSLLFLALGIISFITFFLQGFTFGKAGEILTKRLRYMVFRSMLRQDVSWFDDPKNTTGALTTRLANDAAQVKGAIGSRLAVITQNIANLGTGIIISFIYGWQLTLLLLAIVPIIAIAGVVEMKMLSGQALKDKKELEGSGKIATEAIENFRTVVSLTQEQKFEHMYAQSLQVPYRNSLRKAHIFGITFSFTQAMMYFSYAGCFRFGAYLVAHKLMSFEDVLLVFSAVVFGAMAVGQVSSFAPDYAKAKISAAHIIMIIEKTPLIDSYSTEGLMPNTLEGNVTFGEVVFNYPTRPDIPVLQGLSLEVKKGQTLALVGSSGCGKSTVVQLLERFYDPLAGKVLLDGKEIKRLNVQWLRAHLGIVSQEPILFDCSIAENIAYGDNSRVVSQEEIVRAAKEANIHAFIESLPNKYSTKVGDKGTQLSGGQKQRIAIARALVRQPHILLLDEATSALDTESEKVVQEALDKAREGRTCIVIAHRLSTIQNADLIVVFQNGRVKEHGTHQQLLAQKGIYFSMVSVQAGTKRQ

Activity: substrate [+]
SMILES: C[C@H]1C[C@@H]2[C@H]([C@@H](O)C[C@@]3(C)[C@H]2CC[C@]3(O)C(=O)CO)[C@@]2(C)C=CC(=O)C=C12 [METHYLPREDNISOLONE]
